Tests used:
HIV-1 Integrase [1] = target: T1, HIV-1 Integrase (Human immunodeficiency virus type 1 group M subtype B, UniProt P04585); experiment: HIV-1 integrase 3′-processing inhibition; format: biochemical
HIV-1 Integrase [2] = target: T1, HIV-1 Integrase; experiment: HIV-1 integrase strand transfer inhibition; format: biochemical

Compound | IC50 (HIV-1 Integrase [1]) | IC50 (HIV-1 Integrase [2]) | Strand Transfer IC50 (HIV-1 Integrase [2]; in vitro, strand transfer step)
COc1ccc(/C=C2\C(=O)N(c3cccc(Br)c3)N=C2C(F)(F)F)c(OC)c1OC [Compound 4b] | > 100 µM | > 100 µM | 
O=C1/C(=C\c2ccc(O)c(OCc3ccc(F)cc3)c2)C(C(F)(F)F)=NN1c1cccc(Br)c1 [Compound 4f] | > 100 µM |  | 
COc1ccc(/C=C2\C(=O)N(c3ccccc3)N=C2C(F)(F)F)cc1OCc1ccc(F)cc1 [Compound 5a] | > 100 µM | > 100 µM | 
COc1ccc(/C=C2\C(=O)N(c3cccc(C)c3)N=C2C(F)(F)F)cc1OCc1ccc(F)cc1 [Compound 5b] | > 100 µM | > 100 µM | 
COc1ccc(/C=C2\C(=O)N(c3cccc(-c4ccccc4)c3)N=C2C(F)(F)F)cc1OCc1ccc(F)cc1 [Compound 5d] | > 100 µM |  | 
COc1ccc(/C=C2\C(=O)N(c3cccc(F)c3)N=C2C(F)(F)F)cc1OCc1ccc(F)cc1 [Compound 5f] | > 100 µM |  | 
COc1ccc(/C=C2\C(=O)N(c3cccc(I)c3)N=C2C(F)(F)F)cc1OCc1ccc(F)cc1 [Compound 5i] | > 100 µM |  | 
COc1ccc(/C=C2\C(=O)N(c3cc(Cl)cc(Cl)c3)N=C2C(F)(F)F)cc1OCc1ccc(F)cc1 [Compound 5j] | > 100 µM |  | 
COc1ccc(/C=C2\C(=O)N(c3ccc(C(=O)O)cc3)N=C2C(F)(F)F)cc1OCc1ccc(F)cc1 [Compound 5m] | > 100 µM |  | 
COc1ccc(/C=C2\C(=O)N(c3ccc(NS(C)(=O)=O)cc3)N=C2C(F)(F)F)cc1OCc1ccc(F)cc1 [Compound 5n] | > 100 µM | > 100 µM | 
COc1ccc(/C=C2\C(=O)N(c3nc4ccccc4s3)N=C2C(F)(F)F)cc1OCc1ccc(F)cc1 [Compound 5o] | > 100 µM |  | 
COc1ccc(/C=C2\C(=O)N(c3cccc(Br)c3)N=C2C)cc1OCc1ccc(F)cc1 [Compound 6a] | > 100 µM | > 100 µM | 
CCC1=NN(c2cccc(Br)c2)C(=O)/C1=C\c1ccc(OC)c(OCc2ccc(F)cc2)c1 [Compound 6b] | > 100 µM | > 100 µM | 
COc1ccc(/C=C2\C(=O)N(c3cccc(Br)c3)N=C2NC(=O)C(F)(F)F)cc1OCc1ccc(F)cc1 [Compound 6d] | > 100 µM | > 100 µM | 
COc1ccc(/C=C2\C(=O)N(c3cccc(Br)c3)N=C2OC(C)=O)cc1OCc1ccc(F)cc1 [Compound 6e] | > 100 µM |  | 
COc1ccc(/C=C2\C(=O)N(c3cccc(Br)c3)N=C2COC(C)=O)cc1OCc1ccc(F)cc1 [Compound 6f] | > 100 µM |  | 
CCC(=O)OC1=NN(c2cccc(Br)c2)C(=O)/C1=C\c1ccc(OC)c(OCc2ccc(F)cc2)c1 [Compound 6g] | > 100 µM |  | 
O=C(O)C1=NN(c2cccc([N+](=O)[O-])c2)C(=O)/C1=C\c1ccc(OCc2ccc(F)cc2)c(O)c1 [Compound 14d] |  |  | single-digit micromolar
COc1ccc(/C=C2\C(=O)N(c3ccc(I)cc3)N=C2C(F)(F)F)cc1OCc1ccc(F)cc1 [Compound 56l] | > 100 µM |  | 
